The test system of this experiment is HeLa. In words: Cytotoxicity against human HeLa cells. It is filed as functional, cell-based.

Converted amounts (≈) assume the structure as drawn.

In general, IC50 refers to the midpoint of a concentration-inhibition curve. A low value points to greater potency in that assay. For the compound `COC(=O)/C1=C/[C@@H]2[C@@H](C(C)C)CC=C(C)[C@@H]2C[C@H](OC(=O)/C=C\c2cn(C)cn2)[C@]2(C)C=C[C@@]1(O)O2`, the IC50 is 0.09 µg/mL (≈ 0.181 µM).
Next, `CO[C@]12C=C[C@](C)(O1)[C@@H](OC(=O)/C=C\c1cn(C)cn1)C[C@H]1C(C)=CC[C@H](C(C)C)[C@H]1/C=C\2CO[C@@H]1OC[C@@H](O)[C@@H](O)[C@@H]1OC(C)=O`: 0.017 µg/mL (≈ 0.0259 µM); `CO[C@]12C=C[C@](C)(O1)[C@@H](OC(=O)/C=C/c1cn(C)cn1)C[C@H]1C(C)=CC[C@H](C(C)C)[C@H]1/C=C\2CO` [ELEUTHEROBIN AGLYCON]: 0.09 µg/mL (≈ 0.186 µM).
The same measure for `CO[C@]12C=C[C@](C)(O1)[C@@H](OC(=O)/C=C/c1cn(C)cn1)C[C@H]1C(C)=CC[C@H](C(C)C)[C@H]1/C=C\2CO[C@@H]1OC[C@@H](O)[C@@H](O)[C@@H]1OC(C)=O` [ELEUTHEROBIN]: 0.017 µg/mL (≈ 0.0259 µM); for `CCOC(=O)/C1=C/[C@@H]2[C@@H](C(C)C)CC=C(C)[C@@H]2C[C@H](OC(=O)/C=C/c2cn(C)cn2)[C@]2(C)C=C[C@@]1(O)O2` [SARCODICTYIN B]: 0.09 µg/mL (≈ 0.176 µM).
